Among the data in patent US4490370A, “Naphthylglycyl cephalosporin derivatives” (priority 1983, dated 1984) are MIC values, retold here.

Holding throughout (type): cell-based
Test [1] deals with H. influ. Nature of the test: Agar dilution MIC, H. influenza. The following applies: Table I. The text has this:
(§1) The following Tables present typical minimum inhibitory concentrations (MIC's) in μg/ml for the compounds when evaluated against the indicated microorganisms.
Background: Agar dilution tests growth on a series of plates holding different concentrations.

For test [2], the system named is Klebsiella. The experiment in a line: Agar dilution MIC, Klebsiella. The note with it: Table I, strain X26. The text has this: (§2) A typical and preferred compound provided by this invention is 7-(2-naphthylglycylamido)-3-methyl-3-cephem-4-carboxylic acid, the compound of Example 3. The antibacterial activity of this compound and several others of the invention has been determined in standard in vitro agar dilution assays against a variety of gram positive microorganisms. The following Tables present typical minimum inhibitory concentrations (MIC's) in μg/ml for the compounds when evaluated against the indicated microorganisms. MIC's for several known compounds are also presented for comparison.

Test [3] has as its system Staph. aureus. The experiment in a line: Agar dilution MIC, Staph. aureus. The note with it: Table I.
Source text: as §1

In test [4] the test system is Strep. PN. The experiment in a line: Agar dilution MIC, Strep. PN. The following applies: Table I, strain PARK.
Source text: as §1

Test [5] deals with Staph. epi. Nature of the test: Agar dilution MIC, Staph. epi. The following applies: Table I.
Source text: as §1

The subject of test [6] is Strep. A. Nature of the test: Agar dilution MIC, Strep. A. The following applies: Table I, strain C203.
Source text: as §2

Each structure is given as a SMILES string. ≈ marks a conversion by molar mass, not a printed value. Counter-ions that a name gives are not always drawn. Like-named read-outs stand apart in the source and are kept apart here. Some results are limits rather than exact numbers.

As to `COC1=C(C(=O)O)N2C(=O)C(NC(=O)C(N)c3ccc4ccccc4c3)C2SC1` (racemic) [Example 6, 7-(2-Naphthylglycylamido)-3-methoxy-3-cephem-4-carboxylic acid trifluoroacetate], the MIC was 32 µg/mL in test [1] (strain 251, read-out: MIC); 8 µg/mL in test [2] (Klebsiella, read-out: MIC); 32 µg/mL in test [3] (Staphylococcus aureus, strain S13E); 32 µg/mL in test [3] (Staphylococcus aureus, strain V41, read-out: MIC); 1 µg/mL in test [3] (Staphylococcus aureus, strain X1.1, read-out: MIC); above 138 µg/mL in test [4] (read-out: MIC). In addition, the MIC in test [5] (strain 222, read-out: MIC) worked out at 2 µg/mL; in test [5] (strain EPI1, read-out: MIC), 8 µg/mL; in test [6] (read-out: MIC) it was 0.125 µg/mL.
As for `CC1(C)S[C@@H]2[C@H](NC(=O)[C@H](N)c3ccccc3)C(=O)N2[C@H]1C(=O)O` [Ampicillin, reference compound], the MIC in test [1] (strain 251, read-out: MIC) was determined as 16 µg/mL (≈ 45.8 µM); in test [1] (strain BRUN, read-out: MIC) it was 0.5 µg/mL (≈ 1.43 µM); in test [2] (Klebsiella, read-out: MIC), 16 µg/mL (≈ 45.8 µM); in test [4] (read-out: MIC), 0.03 µg/mL (≈ 0.0859 µM); in test [5] (strain EPI1, read-out: MIC), 8 µg/mL (≈ 22.9 µM); in test [6] (read-out: MIC) it was 0.03 µg/mL (≈ 0.0859 µM).
Consider `N[C@@H](C(=O)N[C@@H]1C(=O)N2C(C(=O)O)=C(Cl)CS[C@H]12)c1ccc2ccccc2c1` [Ex. 5A, D-7-(2-naphthylglycylamido)-3-chloro-3-cephem-4-carboxylic acid], for which the MIC stood at 2 µg/mL (≈ 4.79 µM) in test [1] (strain 251); 4 µg/mL (≈ 9.57 µM) in test [1] (strain BRUN); 2 µg/mL (≈ 4.79 µM) in test [2]; 16 µg/mL (≈ 38.3 µM) in test [3] (strain S13E); 16 µg/mL (≈ 38.3 µM) in test [3] (strain V41); 0.125 µg/mL (≈ 0.299 µM) in test [4]. The MIC in test [5] (strain EPI1) was 2 µg/mL (≈ 4.79 µM); in test [6], 0.125 µg/mL (≈ 0.299 µM).
With `N[C@H](C(=O)N[C@@H]1C(=O)N2C(C(=O)O)=C(Cl)CS[C@H]12)c1ccc2ccccc2c1` [Ex. 5B, L-7-(2-naphthylglycylamido)-3-chloro-3-cephem-4-carboxylic acid], the MIC was 16 µg/mL (≈ 38.3 µM) in test [1] (strain 251); 2 µg/mL (≈ 4.79 µM) in test [2]; 8 µg/mL (≈ 19.1 µM) in test [3] (strain X1.1); 4 µg/mL (≈ 9.57 µM) in test [5] (strain 222); 32 µg/mL (≈ 76.6 µM) in test [5] (strain EPI1); 4 µg/mL (≈ 9.57 µM) in test [6].
